Values joined by “and” are separate entries in the source; they are usually repeats but may differ in a detail not shown here. Identical values can stand only once. Like-named read-outs stand apart in the source and are kept apart here.
Tests used:
[1] = tested on: HT29 colon; test: MTT growth inhibition, 72 h, HT29; assay type: cell-based, human
[2] = tested on: MCF7 breast; test: MTT growth inhibition, 72 h, MCF7; assay type: cell-based; details: for GI50: MCF7, MTT, 72 h
[3] = tested on: A2780 ovarian; test: MTT growth inhibition, 72 h, A2780; assay type: cell-based
[4] = tested on: H460 lung; test: MTT growth inhibition, 72 h, H460; assay type: cell-based; details: for GI50: H460, MTT, 72 h
[5] = tested on: Du145 prostate; test: MTT growth inhibition, 72 h, Du145; assay type: cell-based; details: for GI50: Du145, MTT, 72 h
[6] = tested on: MIA pancreas; test: MTT growth inhibition, 72 h, MIA; assay type: cell-based
[7] = tested on: non-tumour derived MCF10A breast line; test: MTT growth inhibition, 72 h, MCF10A; assay type: cell-based
[8] = tested on: ADDP ovarian variant (cisplatin-resistant A2780 clone); test: MTT growth inhibition, 72 h, ADDP; assay type: cell-based; details: for GI50: ADDP, MTT, 72 h
[9] = tested on: multiple cell lines; test: MTT growth inhibition, over all cell lines tested; assay type: cell-based
[10] = Reduction with ascorbic acid (AsA) in PBS followed by 1H-NMR and 1D-195Pt-NMR; assay type: physicochemical; details: 37 °C; for Reduction Times T50%: estimated 50% reduction; for Reduction Times T50% / Reduction Times T100%: PBS in D2O; for Reduction Times T100%: estimated 100% reduction
Experimental: The reduction behaviour of 1–6 was probed via ^1H-NMR and 1D-^195Pt-NMR spectroscopy, as previously described (see Supplementary Materials).
The reduction behaviour of 1–6 was monitored by ^1H-NMR and 1D-^195Pt-NMR spectroscopy using previously established methods. Prior to the reduction measurements, each metal complex was dissolved with PBS in D2O only.
Based on the initial 1D-^195Pt-NMR spectra acquired (Figures S62 and S63), the structural integrity of the complexes was retained, and no signs of reduction were observed, thus also confirming that the PBS had no effect on the complexes. Subsequently, AsA was added in each solution containing the metal complex, PBS and D2O. Then, sequential ^1H-NMR experiments were undertaken for 1 h, followed by final 1D-^195Pt-NMR experiments measured within the regions of 400 and −2800 ppm (Figures S64–S75). The approximate time points for 1–6 at which an estimated 50 and 100% reduction had occurred, in the presence of AsA, as represented by T50% and T100%, are summarised in Table 8.
A sequence of 1H-NMR experiments was carried out for 1 h at 37 °C, followed by 1D-195Pt-NMR within the regions of –2800 and 400 ppm. An amount of 10 mM PBS (~7.4 pH) was transferred to a vial and reduced to dryness through rotary evaporation. AsA (~1 mg) was combined with the metal complex (~5 mg) and transferred to the vial containing the dried PBS. 600 μL of D2O was then added to the vial to dissolve the complex, AsA and the PBS together. Each reaction was followed at 37 °C until the complete reduction […]
The cell lines tested were: HT29 colon, U87 glioblastoma, MCF-7 breast, A2780 ovarian, H460 lung, A431 skin, Du145 prostate, BE2-C neuroblastoma, SJ-G2 glioblastoma, MIA pancreas, ADDP ovarian variant, and the non-tumour derived MCF10A breast line. In […]
agents were prepared in DMSO (30 mM stock solutions) and stored at −20 °C until use.
All cell lines were cultured in a humidified atmosphere 5% carbon dioxide at 37 °C. The cancer cell lines were maintained in Dulbecco’s modified Eagle’s medium (DMEM) (Trace Biosciences, Sydney, NSW, Australia) supplemented with 10% foetal bovine serum, 10 mM sodium bicarbonate penicillin (100 IU mL−1), streptomycin (100 μg mL−1) and glutamine (4 mM). The non-cancer MCF10A cell line was cultured in DMEM:F12 (1:1) cell culture media, 5% heat inactivated horse serum, supplemented with penicillin (50 IU mL−1), streptomycin (50 μg mL−1), 20 mM 4-(2-hydroxyethyl)-1-piperazineethanesulfonic acid (HEPES), L-glutamine (2 mM), epidermal growth factor (20 ng mL−1), hydrocortisone (500 ng mL−1), cholera toxin (100 ng mL−1) and insulin (10 μg mL−1). Cytotoxicity was determined by plating cells in duplicate in […] medium at a density of 2500 – 4000 cells per well in 96 well plates. On day 0 (24 h after plating) when the cells were in logarithmic growth, 100 μL of medium with or without the test agent

[11] = tested on: HT29 colon cells; test: ROS production, DCFDA/H2DCFDA cellular ROS assay; assay type: cell-based, human; details: treatment at GI50 concentration (TBHP positive control 20 μM)
Experimental: To determine the presence of ROS in treated cells, a DCFDA/H2DCFDA-cellular ROS Assay Kit (Abcam, Cambridge, MA, USA) was utilised, as previously reported. The ROS potential of platinum(II) precursors and platinum(IV) scaffolds, which were determined using the same method, were also presented in this study for comparison.
Additionally, the ROS potential of the platinum(II) precursors and platinum(IV) scaffolds was determined previously and was presented here to allow for comparison (Table 10 and Figure 13). […] Treatment with the complexes and ligands was completed at each specific GI50 concentration. […]
dimethylthiazol-2-yl]-2,5-diphenyltetrazolium bromide) assay and absorbance was read at 540 nm. An eight-point dose response curve was produced from which the GI50 value was calculated, representing the drug concentration at which cell growth was inhibited by 50% based on the difference between the optical density values on day 0 and those at the end of drug exposure.
4. Reactive Oxygen Species (ROS) Potential
A total of 25,000 cells/mL of HT29 cells in DMEM were seeded in 96-well plates. Cells were washed with 1X kit buffer, and then stained with 25 μM 2’,7’-dichlorofluorescein diacetate (DCFH-DA) and incubated for 45 min. DCFH-DA was then removed, and cells were then re-washed with 1X kit buffer, after which phenol red free media was added.
Cells were then treated with a GI50 drug concentration for each complex. The plates were directly scanned to measure fluorescence (relative fluorescence units (RFU)) at different time points using the Glo-Max®-Multimode microplate reader (Promega Corporation, Alexandra, VIC, Australia) at an excitation/emission of 485/535 nm. […]

[12] = tested on: non-tumour derived MCF10A breast line; design: method as in PMID 36296713, PMID 36142383; details: cited from earlier work
[13] = mean over all cell lines tested, read-out: Mean GI50 Values
[14] = all cell lines, MTT, 72 h, read-out: GI50 values over the cell lines tested

SMILES | GI50 [1] [nM] | GI50 [2] [nM] | GI50 [3] [nM] | GI50 [4] [nM] | GI50 [5] [nM] | GI50 [6] [nM] | GI50 [7] [nM] | GI50 [8] [nM] | GI50 [9, 13] [nM] | Reduction Times T100% [10] | ROS Production ([11]; HT29, 24 h) [RFU] | ROS Production ([11]; HT29, 48 h) [RFU] | ROS Production ([11]; HT29, 72 h) | GI50 [12] [nM] | also measured
COc1ccc2cc([C@H](C)C(=O)[O][Pt+2]3([OH])[N]4C=CC=c5ccc6c(c54)[N]3C=CC=6)ccc2c1.N[C@H]1CCCC[C@@H]1N [Complex 1, [Pt^IV(phen)(SS-DACH)(NPX)(OH)]^2+] | 400 ± 23 | 1120 ± 342 | 420 ± 50 | 860 ± 124 | 230 ± 17 | 660 ± 100 | 450 ± 24 | 400 ± 19 | 931 ± 139 | post 60 min | 235 ± 23 | 215 ± 19 | 63 RFU and 63 ± 7 RFU |  | Reduction Times T50% [10]: 20 to 25 min
COc1ccc2cc([C@H](C)C(=O)O)ccc2c1 [NPX, naproxen] |  |  |  |  |  | > 50000 |  |  | > 50000 |  | 187 ± 12 | 178 ± 13 | 15 ± 5 RFU |  | GI50 ([1]; Homo sapiens, HT-29): > 50000 nM; GI50 ([2]; Homo sapiens): > 50000 nM; GI50 ([3]; Homo sapiens): > 50000 nM; GI50 ([4]; Homo sapiens, NCI-H460): > 50000 nM; GI50 ([5]; Homo sapiens, DU-145): > 50000 nM; GI50 ([7]; Homo sapiens, MCF-10A): > 50000 nM; GI50 ([8]; Cisplatin-resistant A2780): > 50000 nM; GI50 [9, 14]: > 50000 nM
C1=C[N]2[Pt+2][N]3C=CC=c4ccc(c2c43)=C1.N[C@H]1CCCC[C@@H]1N [PHENSS] |  |  |  |  |  |  |  |  |  |  |  |  |  | 300 ± 58 | 
Cc1c(C)c2cccnc2c2ncccc12.N[C@H]1CCCC[C@@H]1N.[Pt] [Complex 56MESS, [Pt^II(5,6-Me2phen)(SS-DACH)]^2+] |  |  |  |  |  |  |  |  |  |  |  |  |  | 16 ± 1 | 
Cc1cc2c3c4c1=CC=C[N]4[Pt+2][N]3C=CC=2.N[C@H]1CCCC[C@@H]1N [Complex 5MESS] |  |  |  |  |  |  |  |  |  |  |  |  |  | 30 ± 2 | 
COc1ccc2c(c1)c(CC(=O)OCC(=O)[O][Pt-2]13([OH])([NH2+][C@H]4CCCC[C@@H]4[NH2+]1)[n+]1cccc4cc(C)c5ccc[n+]3c5c41)c(C)n2C(=O)c1ccc(Cl)cc1 [Complex 5, [Pt^IV(5-Mephen)(SS-DACH)(ACE)(OH)]^2+] | 13 ± 8 | 39 ± 18 | 30 ± 12 | 43 ± 8 | 1.3 ± 0.4 | 29 ± 14 | 20 ± 5 | 9.3 ± 2 | 70 ± 15 | 10 to 15 min | 313 ± 11 | 305 ± 10 | 192 RFU and 192 ± 7 RFU |  | fold more potent than carboplatin [5]: 11,540 fold; fold more potent than cisplatin [5]: at least 920 fold; fold more potent than its platinum(II) precursor [5]: 17 fold; fold more potent than oxaliplatin [5]: 2230 fold; fold more potent than cisplatin [8]: 3000 fold
COc1ccc2cc([C@H](C)C(=O)[O][Pt+2]3([OH])[N]4C=CC=c5c(C)c(C)c6c(c54)[N]3C=CC=6)ccc2c1.N[C@H]1CCCC[C@@H]1N [Complex 3, [Pt^IV(5,6-Me2phen)(SS-DACH)(NPX)(OH)]^2+] | 28 ± 6 | 60 ± 22 | 39 ± 9 | 56 ± 5 | 10 ± 2 | 47 ± 7 | 36 ± 4 | 25 ± 2 | 84 ± 12 | post 60 min | 297 ± 21 | 287 ± 11 | 104 RFU and 104 ± 15 RFU |  | Reduction Times T50% [10]: 10 to 15 min; time of complete reduction to platinum(II) precursor ([10]; final 1D-195Pt-NMR at 400 ppm): ~ 1.5 h
COc1ccc2c(c1)c(CC(=O)OCC(=O)O)c(C)n2C(=O)c1ccc(Cl)cc1 [ACE, acemetacin] |  |  |  |  |  | > 50000 |  |  | > 50000 |  | 279 ± 7 | 260 ± 9 | 132 ± 13 RFU |  | GI50 ([1]; Homo sapiens, HT-29): > 50000 nM; GI50 ([2]; Homo sapiens): > 50000 nM; GI50 ([3]; Homo sapiens): > 50000 nM; GI50 ([4]; Homo sapiens, NCI-H460): > 50000 nM; GI50 ([5]; Homo sapiens, DU-145): > 50000 nM; GI50 ([7]; Homo sapiens, MCF-10A): > 50000 nM; GI50 ([8]; Cisplatin-resistant A2780): > 50000 nM; GI50 [9, 14]: > 50000 nM
COc1ccc2c(c1)c(CC(=O)OCC(=O)[O][Pt-2]13([OH])([NH2+][C@H]4CCCC[C@@H]4[NH2+]1)[n+]1cccc4c(C)c(C)c5ccc[n+]3c5c41)c(C)n2C(=O)c1ccc(Cl)cc1 [Complex 6, [Pt^IV(5,6-Me2phen)(SS-DACH)(ACE)(OH)]^2+] | 4.7 ± 4 | 12 ± 6 | 10 ± 4 | 16 ± 2 | 0.22 ± 0.1 | 7.8 ± 4 | 3.4 ± 1 | 1.3 ± 0.5 | 32 ± 7 | 5 min | 344 ± 17 | 312 ± 13 | 202 RFU and 202 ± 10 RFU |  | fold more potent than the platinum(IV) scaffold [4]: ~12 fold; fold more potent than its platinum(II) precursor ([5]; Du145): ~21 fold
COc1ccc2c(c1)c(CC(=O)OCC(=O)[O][Pt-2]13([OH])([NH2+][C@H]4CCCC[C@@H]4[NH2+]1)[n+]1cccc4ccc5ccc[n+]3c5c41)c(C)n2C(=O)c1ccc(Cl)cc1 [Complex 4, [Pt^IV(phen)(SS-DACH)(ACE)(OH)]^2+] | 290 ± 30 | 840 ± 390 | 350 ± 47 | 610 ± 80 | 150 ± 40 | 490 ± 36 | 360 ± 29 | 330 ± 27 | 735 ± 58 | 10 to 15 min | 303 ± 8 | 298 ± 17 | 168 RFU and 168 ± 15 RFU |  | fold decrease of GI50 relative to the platinum(IV) scaffold [2]: 19 fold; fold difference of mean GI50 compared to platinum(II) precursor [9]: 1- to 2 fold
N.N.[Cl][Pt][Cl] [Cisplatin, cis-diamminedichloroplatinum(II)] |  |  |  |  |  |  |  |  |  |  | 299 ± 25 | 370 ± 22 | 392 ± 21 RFU | 5200 ± 520 | 
